From patent publication EP0874850B1, “NOVEL TRICYCLIC COMPOUNDS FOR THE INHIBITION OF THE ICE/CED-3 PROTEASE FAMILY OF ENZYMES” (Idun Pharmaceuticals, Inc., priority 1996, dated 1998) come the findings set out here.

Common to all, as to assay type: biochemical
In test [1] the target is mICE. Kind of test: Determination of dissociation constant Ki and irreversible rate constant k3 for irreversible inhibitors (ICE). From the text:
(§1) For the irreversible inhibition of a ICE/ced-3 Family Protease enzyme with a competitive irreversible inhibitor; using the model represented by the following formulas: [drawing 15] [drawing 16] The product formation at time t may be expressed as: [formula] where E, I, EI and E-I denote the active enzyme, inhibitor, non-covalent enzyme-inhibitor complex and covalent enzyme-inhibitor adduct, respectively. The Ki value is the overall dissociation constant of the reversible binding steps, and k3 is the irreversible rate constant. The [S] and Ks values are the substate concentration and dissociation constant of the substrate bound to the enzyme, respectively. [E]^T is the total enzyme concentration.
(§2) The above equations were used to determine the Ki and k3 values of a given inhibitor bound to a ICE/ced-3 family protease. Thus, a continuous assay was run for sixty minutes at various concentrations of the inhibitor and the substrate. The assay was formulated essentially the same as described above for generating the data in Table 1, except that the reaction was initiated by adding the enzyme to the substrate-inhibitor mixture. The Ki and k3 values were obtained by simulating the product AMC formation as a function of time according to Equation I. The results of this second assay are set forth below in Table 2. […]

The target in test [2] is CPP32. Description: Determination of dissociation constant Ki and irreversible rate constant k3 for irreversible inhibitors (CPP32).
Description: as §1, §2

For test [3], the target named is MCH-2. Description: Determination of dissociation constant Ki and irreversible rate constant k3 for irreversible inhibitors (Mch2).
Description: as §1, §2

Test [4] concerns the target MCH-5. Description: Determination of dissociation constant Ki and irreversible rate constant k3 for irreversible inhibitors (Mch5).
Description: as §1, §2

Test [5] concerns the target mICE. Description: Fluorescence enzyme assay, determination of IC50 values (ICE). Particulars: recombinant enzyme; 30 minutes preincubation at room temperature; substrate Acetyl-Tyr-Val-Ala-Asp-amino-4-methylcoumarin. On the procedure:
(§3) The substrate is Acetyl-Tyr-Val-Ala-Asp-amino-4-methylcoumarin (AMC) for the ICE assay and Acetyl-Asp-Glu-Val-Asp-amino-4-methylcoumarin for the CPP32, Mch2, Mch3 and Mch5 assays. Enzyme reactions were run in ICE buffer (25 mM HEPES, 1 mM EDTA, 0.1% CHAPS, 10% sucrose, pH 7.5) containing 2 mM DTT at room temperature in duplicate.
(§4) The enzyme and the compound of Formula 1 to be assayed were allowed to preincubate in the microtitre plate wells for 30 minutes at room temperature prior to the addition of substrate to initiate the reaction. Fluorescent AMC product formation was monitored for one hour at room temperature by measuring the fluorescence emission at 460 nm using an excitation wavelength of 360 nm. […]
(§5) The reference compound for this assay was Cbz-ValAlaAsp-H and the values are denoted in Table 1 as "Reference".

Test [6] has as its target CPP32. Kind of test: Fluorescence enzyme assay, determination of IC50 values (CPP32). Particulars: recombinant enzyme; 30 minutes preincubation at room temperature; substrate Acetyl-Asp-Glu-Val-Asp-amino-4-methylcoumarin. On the procedure:
as §3, §4, §5

The target in test [7] is MCH-2. Kind of test: Fluorescence enzyme assay, determination of IC50 values (Mch2). Particulars: 30 minutes preincubation at room temperature; substrate Acetyl-Asp-Glu-Val-Asp-amino-4-methylcoumarin. On the procedure:
as §3, §4, §5

The next test concerns the target MCH-3. Kind of test: Fluorescence enzyme assay, determination of IC50 values (Mch3). Particulars: 30 minutes preincubation at room temperature; substrate Acetyl-Asp-Glu-Val-Asp-amino-4-methylcoumarin. On the procedure: as §3, §4, §5
The target in test [8] is MCH-5. Kind of test: Fluorescence enzyme assay, determination of IC50 values (Mch5). Particulars: 30 minutes preincubation at room temperature; substrate Acetyl-Asp-Glu-Val-Asp-amino-4-methylcoumarin. The protocol: as §3, §4, §5
Where [9] appears, read: continuous assay for sixty minutes, reaction initiated by adding the enzyme.

Residues, ends and D or L forms follow the SMILES beside them. *: point of attachment. Cbz = O=C(OCc1ccccc1)*; CH2F = FC*

Consider Cbz-Val-Ala-Asp-CH2F [Reference], for which the k3/Ki at mICE [1] (Reference) is on record as 214,000 M^-1s^-1; at CPP32 [2] (Reference), 12,200 M^-1s^-1; on MCH-2 [3] (Reference) it was 2,950 M^-1s^-1; at MCH-5 [4] (Reference), 83,300 M^-1s^-1. Besides, the Ki at mICE [1] (setting [9]) worked out at 15 nM; at CPP32 [2] (setting [9]), 820 nM; on MCH-2 [3] (setting [9]) it was 594 nM; at MCH-5 [4] (setting [9]) it was 18 nM.
What is called IC50 is the midpoint of a concentration-inhibition curve. On to `CC(C)[C@H](NC(=O)OCc1ccccc1)C(=O)N[C@@H](C)C(=O)N[C@H](C=O)CC(=O)O` [Ref., Cbz-ValAlaAsp-H] (Cbz-Val-Ala-Asp-aldehyde), for which the IC50 on mICE [5] is 64 nM; on CPP32 [6] it was 47000 nM; at MCH-2 [7], over 10000 nM; on MCH-3, over 10000 nM; on MCH-5 [8], 2960 nM.
